pKd: −log10 of the molar value.

The target of this assay is T1, DCAF1 (1058-1396) (Homo sapiens, UniProt Q9Y4B6).
T1 construct: a fragment of a DCAF1 protein that includes amino acid residues A1058 to E1396; His6 (N, cleaved yes); made in house; host or cells: Sf9 insect cells (Bac-to-Bac baculovirus, pFastBacHT vector)
T1 sequence (Q9Y4B6 1058-1396): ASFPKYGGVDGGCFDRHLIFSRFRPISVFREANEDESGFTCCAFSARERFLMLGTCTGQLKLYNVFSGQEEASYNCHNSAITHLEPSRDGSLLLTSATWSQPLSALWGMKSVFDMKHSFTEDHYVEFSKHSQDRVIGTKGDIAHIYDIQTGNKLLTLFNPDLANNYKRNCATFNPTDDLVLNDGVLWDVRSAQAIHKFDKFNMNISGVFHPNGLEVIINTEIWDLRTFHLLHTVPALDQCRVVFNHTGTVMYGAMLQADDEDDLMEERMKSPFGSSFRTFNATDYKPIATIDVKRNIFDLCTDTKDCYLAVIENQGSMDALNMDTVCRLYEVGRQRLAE
Nature of the assay: Surface plasmon resonance (SPR) binding assay, compound binding to DCAF1. Conditions: immobilized DCAF1 (1058-1396), steady state affinity model, 25° C. The protocol: Binding affinities of specific exemplary compounds to DCAF1 (1058-1396), which is a fragment of a DCAF1 protein that includes amino acid residues A1058 to E1396 were determined by a surface plasmon resonance (SPR) assay. Briefly, purified DCAF1 (1058-1396) proteins were immobilized at a density of 9,000-11,000 resonance units (RUs) on a CMS sensor chip. Sensorgrams were recorded at different concentrations of compounds in multi-cycle kinetic format. Data were analyzed using a steady state affinity model through Biacore Evaluation Software to provide equivalent dissociation constants (Kd).
Binding affinities of compounds to DCAF1 were determined by a surface plasmon resonance (SPR) assay. Purified DCAF1 (1058-1396) proteins were immobilized on a CMS sensor chip, and a dose range of compound solutions were injected in multi-cycle kinetic format. Data were analyzed using a steady state model to provide equivalent dissociation constants (Kd).
Protein Expression and Purification: Human DCAF1 (1058-1396) (UniPro: Q9Y4B6) coding sequences were cloned into pFastBacHT vector and were expressed in Sf9 cells using Bac-to-Bac baculovirus expression system (Thermo Fisher Scientific). The expression construct for DCAF1 (1058-1396) included a N-terminal His6-tag to facilitate the purification. DCAF1 (1058-1396) proteins were obtained from supernatants of cell lysates and purified through sequential application of Ni affinity chromatography (Ni-NTA column, Bio-Rad), Tag removal using TEV protease, and size-exclusion chromatography (Superdex 200 column, GE Healthcare).
Surface plasmon resonance (SPR) binding assays: SPR studies were performed on a Biacore X100 plus or T200 instrument (GE Healthcare). Immobilization of purified DCAF1 (1058-1396) was carried out at 25° C. using a CMS sensor chip. The surface was pre-equilibrated in HBS-EP running buffer (10 mM HEPES, pH 7.4, 150 mM NaCl, 3 mM EDTA, 0.05% P20), before being activated with EDC/NHS. DCAF1 (1058-1396) was immobilized through amino groups to a density of 9,000-12,000 resonance units (RUs) on flow cell channel 2 (FC2), whereas flow cell channel 1 (FC1) was used as reference. Both DCAF1 immobilized and reference surfaces were deactivated with 1 M ethanolamine.
Interaction experiments were performed at 25° C. The compounds were prepared and serially diluted in HBS-EP running buffer containing final 2% DMSO (6-point two-fold serial dilution, 100 μM -3.125 μM final concentration of compounds). Compound Solutions were injected individually in multi-cycle kinetic format without regeneration (flow rate 30 μL/min, association time 60 s, dissociation time 60 s). Sensorgrams from reference surfaces and blank injections were subtracted from the raw data (double-referenced) and the data was solvent-corrected prior to analysis. Data were analyzed using a steady state affinity model through Biacore Evaluation Software to provide equivalent dissociation constants (Kd).
The term pKd denotes the negative decadic logarithm of the Kd, by convention in mol/L. A lower pKd goes with a high Kd. As for `NCCOCCOCCOCCn1c2c(c3cc(F)ccc31)CN(CCc1cnn[nH]1)CC2` [CPD-016, 2-(2-(2-(2-(2-(2-(1H-1,2,3-triazol-5-yl)ethyl)-8-fluoro-1,2,3,4-tetrahydro-5H-pyrido[4,3-b]indol-5-yl)ethoxy)ethoxy)ethoxy)ethan-1-amine], the pKd was 4.15 to 4.40.

The compound `Cc1ccc(CCn2c3c(c4ccccc42)CN(C)CC3)cn1` [CPD-059, 2-methyl-5-(2-(6-methylpyridin-3-yl)ethyl)-2,3,4,5-tetrahydro-1H-pyrido[4,3-b]indole] showed a pKd of 4.15 to 4.40.

As for `COc1cncc(CNCc2cnc[nH]2)c1` [CPD-027, N-((1H-imidazol-5-yl)methyl)-1-(5-methoxypyridin-3-yl) methanamine], the pKd is < 4.00.

For `c1ccc2c3c([nH]c2c1)CCN(CCc1ccncc1)C3` [CPD-045, 2-(2-(pyridin-4-yl)ethyl)-2,3,4,5-tetrahydro-1H-pyrido[4,3-b]indole], the negative-log Kd (pKd) is 4.15 to 4.40.

Regarding `Cc1ccc2c(c1)C1CN(C)CCC1N2C(=O)/C(=C/c1ccc(Cl)cc1)c1ccc(F)cc1` (stereo not drawn) [CPD-088, (E)-3-(4-chlorophenyl)-1-(2,8-dimethyl-1,2,3,4,4a,9b-hexahydro-5H-pyrido[4,3-b]indol-5-yl)-2-(4-fluorophenyl)prop-2-en-1-one], the pKd was 4.15 to 4.40.

Compound `C#CCNC(=O)CCN1CCc2[nH]c3ccc(F)cc3c2C1` [CPD-052, 3-(8-fluoro-1,3,4,5-tetrahydro-2H-pyrido[4,3-b]indol-2-yl)-N-(prop-2-yn-1-yl)propanamide] had a pKd of 4.15 to 4.40.

In the case of `OCCCNCc1cccn1-c1ccccc1` [CPD-101, 3-(((1-phenyl-1H-pyrrol-2-yl)methyl)amino)propan-1-ol], the pKd was < 4.00.

For `CNC(=O)NC(=O)CCN1CCc2[nH]c3ccc(Cl)cc3c2C1` [CPD-050, 3-(8-chloro-1,3,4,5-tetrahydro-2H-pyrido[4,3-b]indol-2-yl)-N-(methylcarbamoyl)propanamide], the pKd is 4.00 to 4.15.

Turning to `Cc1cccc2c1[C@@H]1CN(C)CC[C@H]1N2` (racemic) [CPD-039, trans-2,9-dimethyl-2,3,4,4a,5,9b-hexahydro-1H-pyrido [4,3-b]indole], the pKd was < 4.00.

`Clc1ccc2[nH]c3c(c2c1)CN(CCc1cnn[nH]1)CC3` [CPD-008, 2-(2-(1H-1,2,3-triazol-5-yl)ethyl)-8-chloro-2,3,4,5-tetrahydro-1H-pyrido[4,3-b]indole] had a pKd of 4.15 to 4.40.

For the compound `Cc1ccc2c(c1)C1CN(C)CCC1N2C(=O)C[C@@H](n1cccn1)C(F)(F)F` (stereo partly drawn) [CPD-080, (R)-1-(2,8-dimethyl-1,2,3,4,4a,9b-hexahydro-5H-pyrido [4,3-b]indol-5-yl)-4,4,4-trifluoro-3-(1H-pyrazol-1-yl)butan-1-one], the negative logarithm of the Kd (pKd) is < 4.00.

Consider `COC(CN1CCc2[nH]c3ccc(F)cc3c2C1)OC` [CPD-051, 2-(2,2-dimethoxyethyl)-8-fluoro-2,3,4,5-tetrahydro-1H-pyrido[4,3-b]indole], for which the pKd was ≥ 4.40.

`O=C(CN1CCc2[nH]c3ccc(Cl)cc3c2C1)N1CCOCC1` [CPD-044, 2-(8-chloro-1,3,4,5-tetrahydro-2H-pyrido[4,3-b]indol-2-yl)-1-morpholinoethan-1-one] showed a negative logarithm of the Kd (pKd) of 4.15 to 4.40.

For `CN(CC1Cc2ccccc2CN1C)C(=O)/C=C/c1cc(CO)cs1` (stereo not drawn) [CPD-097, (E)-3-(4-(hydroxymethyl)thiophen-2-yl)-N-methyl-N-((2-methyl-1,2,3,4-tetrahydroisoquinolin-3-yl)methyl)acrylamide], the pKd was < 4.00.

As to `CN1CCc2c(c3ccccc3n2-c2ccccc2)C1` [CPD-057, 2-methyl-5-phenyl-2,3,4,5-tetrahydro-1H-pyrido[4,3-b]indole], the pKd was < 4.00.

For `O=C(NCCn1ncc2ccccc2c1=O)C1Cc2ccccc2CN1` (stereo not drawn) [CPD-098, N-(2-(1-oxophthalazin-2(1H)-yl)ethyl)-1,2,3,4-tetrahydroisoquinoline-3-carboxamide], the pKd was 4.15 to 4.40.

Turning to `Cc1ccc2c(c1)C1CN(C)CCC1N2C(=O)/C=C/c1cccc(C(F)(F)F)c1` (stereo not drawn) [CPD-075, (E)-1-(2,8-dimethyl-1,2,3,4,4a,9b-hexahydro-5H-pyrido [4,3-b]indol-5-yl)-3-(3-(trifluoromethyl)phenyl)prop-2-en-1-one], the pKd was < 4.00.

The compound `Cc1ccc2c(c1)C1CN(C)CCC1N2C(=O)/C=C/c1ccc(F)cc1` (stereo not drawn) [CPD-084, (E)-1-(2,8-dimethyl-1,2,3,4,4a,9b-hexahydro-5H-pyrido [4,3-b]indol-5-yl)-3-(4-fluorophenyl)prop-2-en-1-one] had a pKd of 4.15 to 4.40.

`Cc1ccc2c(c1)[C@H]1CN(C)CC[C@H]1N2C` (racemic) [CPD-036, cis-2,5,8-trimethyl-2,3,4,4a,5,9b-hexahydro-1H-pyrido [4,3-b]indole]: the pKd is < 4.00.

Take `Cn1cccc1CNCC1CC(c2nncn2C)CC1O` (stereo not drawn) [CPD-099, 2-((((1-methyl-1H-pyrrol-2-yl)methyl)amino)methyl)-4-(4-methyl-4H-1,2,4-triazol-3-yl)cyclopentan-1-ol]: the pKd was 4.15 to 4.40.

In turn, `CC(C)(C)c1ccc2[nH]c3c(c2c1)CN(CCc1cnn[nH]1)CC3` [CPD-011, 2-(2-(1H-1,2,3-triazol-5-yl)ethyl)-8-(tert-butyl)-2,3,4,5-tetrahydro-1H-pyrido[4,3-b]indole] gave a pKd of 4.15 to 4.40.

Turning to `Cc1ccc2c(c1)C1CN(C)CCC1N2C(=O)c1nc(Cl)ccc1Cl` (stereo not drawn) [CPD-066, (3,6-dichloropyridin-2-yl) (2,8-dimethyl-1,2,3,4,4a,9b-hexahydro-5H-pyrido[4,3-b]indol-5-yl)methanone], the pKd was < 4.00.

Regarding `Nc1nc(CCN2CCc3[nH]c4ccc(F)cc4c3C2)cs1` [CPD-053, 4-(2-(8-fluoro-1,3,4,5-tetrahydro-2H-pyrido[4,3-b]indol-2-yl)ethyl)thiazol-2-amine], the pKd is 4.15 to 4.40.

As to `NCCCCCCn1cccc1C(=O)NCc1ccncc1` [CPD-004, 1-(6-aminohexyl)-N-(pyridin-4-ylmethyl)-1H-pyrrole-2-carboxamide], the pKd is 4.15 to 4.40.

The compound `Cc1ccc2[nH]c3c(c2c1)CN(C)CC3` [CPD-019, 2,8-dimethyl-2,3,4,5-tetrahydro-1H-pyrido[4,3-b]indole] showed a pKd of 4.15 to 4.40.

For `CN1CCc2c(c3ccccc3n2Cc2ccccc2)C1` [CPD-058, 5-benzyl-2-methyl-2,3,4,5-tetrahydro-1H-pyrido[4,3-b]indole], the pKd is 4.00 to 4.15.

For `Cc1ccc(Br)c2[nH]c3c(c12)CN(C)CC3` [CPD-038, 6-bromo-2,9-dimethyl-2,3,4,5-tetrahydro-1H-pyrido[4,3-b]indole], the pKd was < 4.00.

On to `CC(C)N1CCc2c(c3ccccc3n2CC(=O)O)C1` [CPD-010, 2-(2-isopropyl-1,2,3,4-tetrahydro-5H-pyrido[4,3-b]indol-5-yl)acetic acid], for which the pKd was < 4.00.

For the compound `OCCOc1ccc(CNCc2cnc[nH]2)cc1` [CPD-031, 2-(4-((((1H-imidazol-5-yl)methyl)amino)methyl)phenoxy)ethan-1-ol], the negative logarithm of the Kd (pKd) is < 4.00.

Take `Clc1cc(CNCc2cnc[nH]2)cc2c1OCO2` [CPD-030, N-((1H-imidazol-5-yl)methyl)-1-(7-chlorobenzo[d][1,3]dioxol-5-yl)methanamine]: the pKd was < 4.00.

Regarding `COc1nccc(C(=O)N2c3ccc(C)cc3C3CN(C)CCC32)n1` (stereo not drawn) [CPD-063, (2,8-dimethyl-1,2,3,4,4a,9b-hexahydro-5H-pyrido[4,3-b]indol-5-yl)(2-methoxypyrimidin-4-yl)methanone], the pKd is < 4.00.

As to `Cc1ccc2c(c1)C1CN(C)CCC1N2C(=O)c1ccnc(OCC(F)F)c1` (stereo not drawn) [CPD-069, (2-(2,2-difluoroethoxy)pyridin-4-yl)(2,8-dimethyl-1,2,3,4,4a,9b-hexahydro-5H-pyrido[4,3-b]indol-5-yl)methanone], the pKd is < 4.00.

Consider `O=C(CCN1CCc2[nH]c3ccc(Cl)cc3c2C1)N1CCOCC1` [CPD-049, 3-(8-chloro-1,3,4,5-tetrahydro-2H-pyrido[4,3-b]indol-2-yl)-1-morpholinopropan-1-one], for which the pKd is ≥ 4.40.

The values are drawn from US20240197694A1, “MODIFIED PROTEINS AND PROTEIN BINDERS” (Cullgen (Shanghai), Inc., priority 2021, published 2024).
